Patent US11629171B2, “Beta-hairpin peptidomimetics” (POLYPHOR AG, priority 2017, dated 2023)
Converted amounts (≈) assume the structure as drawn. Where a SMILES comes first, the peptide text is derived from it. Bridges are numbered along the chain shown (N, C = ends). Roman numbers before positions name the chains, in order. [ ]: non-standard residue; d: D form. The star is where a group is joined. Tle = CC(C)(C)[C@H](N)C(=O)O; NMeV = CN[C@H](C(=O)O)C(C)C; Hiv = CC(C)[C@H](O)C(=O)O; dDab = NCC[C@@H](N)C(=O)O; hSer = N[C@@H](CCO)C(=O)O; NHCH(CH2OH)2 = OCC(CO)N*; Dab = NCC[C@H](N)C(=O)O; Dap = NC[C@H](N)C(=O)O

Key:
Type in all cases: cell-based
[1] = system: Klebsiella pneumoniae SSI #3010; conditions: SSI #3010
Method in brief: (§1)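 CLSI broth microdilution: inoculum ~10^6 CFU/mL in cation-adjusted Mueller-Hinton II broth, with peptide in serial two-fold dilutions plus Polysorbate 80 (0.002% final). MIC (μg/mL) is the lowest concentration without visible growth after 18-20 hours at 35° C.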

[2] = system: Escherichia coli ATCC 25922; conditions: ATCC 25922
Method in brief: as §1

[3] = system: Pseudomonas aeruginosa ATCC 27853; conditions: ATCC 27853
Method in brief: as §1

[4] = system: Klebsiella pneumoniae 968733; conditions: 968733
Method in brief: as §1

[5] = system: Acinetobacter baumannii 872842; conditions: 872842
Method in brief: as §1

[6] = system: Enterobacter cloacae 848840; conditions: 848840
Method in brief: as §1

[7] = system: Acinetobacter baumannii DSM 30008; conditions: DSM 30008
Method in brief: as §1

[8] = system: Escherichia coli 926415; conditions: 926415
Method in brief: as §1

[9] = system: human red blood cells (hRBC); test: Hemolysis; conditions: red cells of human, 1 h, 200
Method in brief: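 Percent lysis of human red cells was derived from OD540 of the supernatant, referenced to 2% Triton X-100, after a 1 h, 37° C incubation of 20% (v/v) cells with 200 μg/mL peptide.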

Row | Compound | MIC [1] [µg/mL] | MIC [2] [µg/mL] | MIC [3] [µg/mL] | MIC [4] [µg/mL] | MIC [5] [µg/mL] | MIC [6] [µg/mL] | MIC [7] [µg/mL] | MIC [8] [µg/mL] | Hemolysis at 200 μg/mL [9] [%]
1 | CC(C)C[C@@H]1NC(=O)[C@@H](CC(C)C)NC(=O)[C@H](CCN)NC(=O)[C@@H](NC(=O)[C@H](CN)NC(=O)[C@@H](NC(=O)[C@H](CCN)NC(=O)CC[C@@H]2NC(=O)[C@@H](CCN)NC(=O)CNC(=O)[C@H](CCN)NC(=O)[C@H](Cc3ccc(O)cc3)NC(=O)[C@@H](NC(=O)[C@@H](O)C(C)C)CSSC[C@@H](C(=O)NC(CO)CO)NC(=O)[C@H](C(C)(C)C)NC(=O)[C@H](CO)NC(=O)[C@H](Cc3c[nH]c4ccccc34)NC2=O)[C@@H](C)O)CCNC(=O)[C@H]([C@@H](C)O)NC(=O)[C@H](CCN)NC(=O)[C@H](CCN)NC1=O [Ex. 174] (I: H-[Hiv]CY[Dab]G[dDab]EWS[Tle]C-{NHCH(CH2OH)2} / II: [Dab]T[Dap][Dab][Dab][dL]L[Dab][Dab]T; disulfide I:2-I:11; amide I:7-II:N; lactam II:4-II:C) | 0.0625 (≈ 0.0268 µM) | 0.0625 (≈ 0.0268 µM) | 0.125 (≈ 0.0537 µM) | 0.25 (≈ 0.107 µM) | 0.125 (≈ 0.0537 µM) | 0.25 (≈ 0.107 µM) | 0.0625 (≈ 0.0268 µM) | 0.125 (≈ 0.0537 µM) | <1
2 | CC(=O)N[C@H](C(=O)N[C@H]1CSSC[C@@H](C(=O)N[C@@H](CO)C(N)=O)NC(=O)[C@H](C(C)C)NC(=O)[C@@H]2CSSC[C@H](NC(=O)[C@H](Cc3ccc(O)cc3)NC1=O)C(=O)N[C@@H](CCC(=O)N[C@@H](CCN)C(=O)N[C@H](C(=O)N[C@@H](CCN)C(=O)N[C@H]1CCNC(=O)[C@H]([C@@H](C)O)NC(=O)[C@H](CCN)NC(=O)[C@H](CCN)NC(=O)[C@H](CC(C)C)NC(=O)[C@@H](CC(C)C)NC(=O)[C@H](CCN)NC1=O)[C@@H](C)O)C(=O)N[C@H](CCN)C(=O)N[C@@H](CCO)C(=O)N[C@@H](Cc1c[nH]c3ccccc13)C(=O)N2)C(C)C [Ex. 175] (I: Ac-VCYCE[dDab][hSer]WCVCS-NH2 / II: [Dab]T[Dab][Dab][Dab][dL]L[Dab][Dab]T; disulfide I:2-I:11, I:4-I:9; amide I:5-II:N; lactam II:4-II:C) | 0.125 (≈ 0.0511 µM) | 0.0625 (≈ 0.0256 µM) | 0.125 (≈ 0.0511 µM) | 0.5 (≈ 0.205 µM) | 0.0625 (≈ 0.0256 µM) | 0.25 (≈ 0.102 µM) | 0.125 (≈ 0.0511 µM) | 0.25 (≈ 0.102 µM) | 1
3 | CC(C)C[C@@H]1NC(=O)[C@@H](CC(C)C)NC(=O)[C@H](CCN)NC(=O)[C@@H](NC(=O)[C@H](CCN)NC(=O)[C@@H](NC(=O)[C@H](CCN)NC(=O)CC[C@@H]2NC(=O)[C@@H]3CSSC[C@H](NC(=O)[C@H](Cc4c[nH]c5ccccc45)NC(=O)[C@H](CCO)NC(=O)[C@@H](CCN)NC2=O)C(=O)N[C@@H](C(C)C)C(=O)N[C@H](C(=O)N[C@@H](CO)C(N)=O)CSSC[C@H](NC(=O)[C@@H](N)C(C)C)C(=O)N[C@@H](Cc2ccc(O)cc2)C(=O)N3)[C@@H](C)O)CCNC(=O)[C@H]([C@@H](C)O)NC(=O)[C@H](CCN)NC(=O)[C@H](CCN)NC1=O [Ex. 176] (I: H-VCYCE[dDab][hSer]WCVCS-NH2 / II: [Dab]T[Dab][Dab][Dab][dL]L[Dab][Dab]T; disulfide I:2-I:11, I:4-I:9; amide I:5-II:N; lactam II:4-II:C) | 0.125 (≈ 0.052 µM) | 0.0625 (≈ 0.026 µM) | 0.125 (≈ 0.052 µM) | 0.25 (≈ 0.104 µM) | 0.125 (≈ 0.052 µM) | 0.5 (≈ 0.208 µM) | 0.125 (≈ 0.052 µM) | 0.25 (≈ 0.104 µM) | <1
4 | CN[C@H](C(=O)N[C@H]1CSSC[C@@H](C(=O)N[C@@H](CO)C(N)=O)NC(=O)[C@H](C(C)C)NC(=O)[C@@H]2CSSC[C@H](NC(=O)[C@H](Cc3ccc(O)cc3)NC1=O)C(=O)N[C@@H](CCC(=O)N[C@@H](CCN)C(=O)N[C@H](C(=O)N[C@@H](CCN)C(=O)N[C@H]1CCNC(=O)[C@H]([C@@H](C)O)NC(=O)[C@H](CCN)NC(=O)[C@H](CCN)NC(=O)[C@H](CC(C)C)NC(=O)[C@@H](CC(C)C)NC(=O)[C@H](CCN)NC1=O)[C@@H](C)O)C(=O)N[C@H](CCN)C(=O)N[C@@H](CCO)C(=O)N[C@@H](Cc1c[nH]c3ccccc13)C(=O)N2)C(C)C [Ex. 177] (I: H-[NMeV]CYCE[dDab][hSer]WCVCS-NH2 / II: [Dab]T[Dab][Dab][Dab][dL]L[Dab][Dab]T; disulfide I:2-I:11, I:4-I:9; amide I:5-II:N; lactam II:4-II:C) | 0.25 (≈ 0.103 µM) | 0.0625 (≈ 0.0259 µM) | 0.125 (≈ 0.0517 µM) | 0.5 (≈ 0.207 µM) | 0.125 (≈ 0.0517 µM) | 1 (≈ 0.414 µM) | 0.0625 (≈ 0.0259 µM) | 0.25 (≈ 0.103 µM) | <1
5 | CC(=O)N[C@H](C(=O)N[C@H](C(=O)N[C@@H](Cc1ccc(O)cc1)C(=O)N[C@H]1CSSC[C@@H](C(=O)N[C@H](C(=O)N[C@@H](C)C(=O)N[C@@H](CO)C(N)=O)C(C)(C)C)NC(=O)[C@H](Cc2c[nH]c3ccccc23)NC(=O)[C@H]([C@@H](C)O)NC(=O)[C@@H](CCN)NC(=O)[C@H](CCC(=O)N[C@@H](CCN)C(=O)N[C@H](C(=O)N[C@@H](CCN)C(=O)N[C@H]2CCNC(=O)[C@H]([C@@H](C)O)NC(=O)[C@H](CCN)NC(=O)[C@H](CCN)NC(=O)[C@H](CC(C)C)NC(=O)[C@@H](CC(C)C)NC(=O)[C@H](CCN)NC2=O)[C@@H](C)O)NC1=O)[C@@H](C)O)C(C)C [Ex. 178] (I: Ac-VTYCE[dDab]TWC[Tle]AS-NH2 / II: [Dab]T[Dab][Dab][Dab][dL]L[Dab][Dab]T; disulfide I:4-I:9; amide I:5-II:N; lactam II:4-II:C) | 0.125 (≈ 0.0515 µM) | 0.125 (≈ 0.0515 µM) | 0.125 (≈ 0.0515 µM) | 2 (≈ 0.824 µM) | 0.25 (≈ 0.103 µM) | 0.25 (≈ 0.103 µM) | 0.0625 (≈ 0.0258 µM) | 0.5 (≈ 0.206 µM) | <1
6 | CC(=O)N[C@H](C(=O)N[C@@H](CN)C(=O)N[C@@H](Cc1ccc(O)cc1)C(=O)N[C@H]1CSSC[C@@H](C(=O)N[C@H](C(=O)N[C@@H](C)C(=O)N[C@@H](CO)C(N)=O)C(C)(C)C)NC(=O)[C@H](Cc2c[nH]c3ccccc23)NC(=O)[C@H]([C@@H](C)O)NC(=O)[C@@H](CCN)NC(=O)[C@H](CCC(=O)N[C@@H](CCN)C(=O)N[C@H](C(=O)N[C@@H](CCN)C(=O)N[C@H]2CCNC(=O)[C@H]([C@@H](C)O)NC(=O)[C@H](CCN)NC(=O)[C@H](CCN)NC(=O)[C@H](CC(C)C)NC(=O)[C@@H](CC(C)C)NC(=O)[C@H](CCN)NC2=O)[C@@H](C)O)NC1=O)C(C)C [Ex. 179] (I: Ac-V[Dap]YCE[dDab]TWC[Tle]AS-NH2 / II: [Dab]T[Dab][Dab][Dab][dL]L[Dab][Dab]T; disulfide I:4-I:9; amide I:5-II:N; lactam II:4-II:C) | 0.25 (≈ 0.104 µM) | 0.125 (≈ 0.0518 µM) | 0.25 (≈ 0.104 µM) | 4 (≈ 1.66 µM) | 0.25 (≈ 0.104 µM) | 0.5 (≈ 0.207 µM) | 0.0625 (≈ 0.0259 µM) | 0.5 (≈ 0.207 µM) | <1
